# Source: a melting point compilation (Tetko et al.; mined from patent text by program, amines drawn as free bases though some values may be those of a salt)
row,melting point [°C],Structure (SMILES)
1,238 to 240,COc1cc(Nc2c(C#N)cnc3cc(C#Cc4ccccn4)ccc23)c(Cl)cc1Cl
2,117 to 119,OCC(CO)Oc1cc(-c2ccccc2)on1
3,283 to 285,COc1cc(C(=O)O)ccc1Cc1cccc2ccc(C(N)=O)cc12
4,172 to 173,CCCCn1c(C(=O)c2cc(C)cc(CCC#N)c2)c(C(C)C)c(=O)[nH]c1=O
5,170 to 172,CCOc1cc2nc(CN(C)C)nc(Nc3cccc(-c4csc(C)n4)c3)c2cc1OCC
6,174 to 176,CCn1c(=O)n(OCc2ccccc2)c(=O)c2cc(F)c(N3CCCC3)cc21
7,187 to 188,O=C(c1cccc(Br)c1)C(Br)C(Br)c1cc(Br)ccc1[N+](=O)[O-] (centres undefined)
8,140 to 141,Cn1cc(-c2cccc(N3Cc4cc(C5CC5)sc4C3=O)c2CO)cc(Nc2ccncn2)c1=O
9,114 to 116,CC(C)=CCOc1ccc2c(C)cc(=O)oc2c1C(=O)C=Cc1ccccc1
10,162 to 163,CCOC(=O)COc1ccc(C(=O)Nc2ccccc2Oc2ccccc2-c2nnn[nH]2)cc1
11,279 to 281,CCCc1cnn2c(O)cc(CC)nc12
12,235 to 236,CS(=O)(=O)c1cc(C(=O)N=C(N)N)cc(-n2cccc2)c1
13,107,CC(c1ccc(Cl)cc1)N1CCNC1=NC(N)=S (centres undefined)
14,122 to 124,O=C(O)CCCCc1cn(-c2cccnc2)c2ccccc12
15,193 to 195,CS(=O)(=O)c1ccc2c(c1)S(=O)(=O)NCN2CCF
16,40 to 41,C=C(C#N)C(=O)OCC(C)(C)C
17,98 to 99,CC(Oc1ccc(Cl)cc1)c1ccnn2cnnc12 (centres undefined)
18,243 to 245,NC(=O)CC[C@H]1CN(c2ccc(C(=O)c3cnc4ccc(C(F)(F)F)cn34)cc2)C(=O)O1
19,262 to 264,COc1ccc2c(c1)c1c3c(c(-c4ccccc4)cc1n2CCO)C(=O)NC3=O
20,145 to 147,COC(=O)c1ccc(Cl)cc1NC(=O)CSc1ccc(N)cc1
21,104 to 106,COCCCNC(=O)c1cc(Br)c(OCc2ccccc2)cc1OCc1ccccc1
22,142 to 144,Nc1ncnc2c1ncn2CCCN1CCC(COc2ccccc2)CC1
23,153 to 154,COc1ccc(CNc2nc(-c3ccco3)c3ncn(Cc4ccc(OC)cc4)c3n2)cc1
24,81 to 82,CC(C)c1nn(-c2ccc(C(F)(F)F)cc2)cc1C=O

row,melting point [°C],Structure (SMILES)
1,> 250,Cc1ccc(CNCCOc2cccc3[nH]c(=S)[nH]c23)cc1
2,215 to 216,NC(=O)c1cnn(-c2ccc(F)cc2)c1-c1ccncc1
3,310 to 311,O=c1[nH]nc(-c2ccc(-n3ccnc3)cc2)c2ccccc12
4,> 270,Nc1cccnc1C1CCN(c2cc3c(cc2F)c(=O)c(C(=O)O)cn3C2CC2)C1 (centres undefined)
5,166 to 168,COc1cc(Nc2c(C#N)cnc3cc(F)c(OCCN4CCOCC4)cc23)c(Cl)cc1Cl
6,156 to 158,CCc1cc2c(O)c(C(=O)OCC(C)C)cnc2s1
7,104 to 105,CCCCCCCCCN=C=O
8,190 to 195,CC(=O)Nc1c(C)ccc(O)c1C
9,108 to 110,CCC(CC)Oc1cc(C)nc(Nc2c(C)cc(C)cc2C)c1C(=O)C#N
10,220 to 222,O=C(Nc1cccc(-c2ccnc3c(C(=O)c4cccs4)cnn23)c1)c1ccncc1
11,84 to 85,O=C(Cl)c1cc(OCc2ccccc2)cc([N+](=O)[O-])c1
12,160,COCC1=C(C(=O)OC)C(c2ccccc2Cl)c2c[nH]nc2N1 (centres undefined)
13,> 270,CC1(C)C(=O)Nc2ccccc2NC1=O
14,207 to 209,COc1ccc(-c2ccc(C(C)C)cc2)c(C(=O)Nc2ccc(N3CCN(CC(N)=O)CC3)cc2)c1
15,282 to 285,O=C(c1n[nH]c2c(=O)[nH]c3cc(Cl)ccc3c(=O)c12)N(O)Cc1ccccc1
16,139 to 143,CN(C)C=NC(=S)Nc1ccccc1
17,54 to 60,Nc1cccc2c1nnn2C1CCCCC1
18,111 to 113,CSc1nc2c(C)cccc2c2c1CCN2c1ccccc1C
19,139 to 141,CC1C=CC=CN2C3=C(C(=O)CCC3)N(C(=O)Nc3ccccc3F)C12 (centres undefined)
20,41 to 47,CCOC(=O)/C(=C/c1ccccc1)OC(C)=O
21,139 to 145,CCOC(=O)C1C(C)C=CC(NC(=O)OC(C)(C)C)C1[N+](=O)[O-] (centres undefined)
22,175 to 177,CCOC(=O)c1c(-c2ccccc2)c2ccc(OC)cc2[nH]c1=O
23,120 to 123,CN(C)S(=O)(=O)OCCOc1ccc(-n2ccnc2)cc1
24,72 to 75,O=C(N1CC2CC2(c2ccc(Cl)cc2)C1)C12CC3CC(CC(C3)C1)C2 (centres undefined)

row,melting point [°C],Structure (SMILES)
1,92 to 94,Cc1ccc2ccccc2c1NC1COC(=O)C1 (centres undefined)
2,113 to 115,N#Cc1cnn2c1N(C(=O)CN1CCN(C(=O)OCc3ccccc3)CC1)CC=C2c1cccc(C(F)(F)F)c1
3,66 to 68,CC(=O)Oc1cccc(C=C2CCCc3cc(C)cnc32)c1
4,177 to 178,Cc1nc(-c2ccc(Cl)cc2)oc1COC(C)(C)C(N)=O
5,218,N#Cc1ccc(C(=O)c2ccc(O)c(CC(=O)O)c2)cc1
6,39 to 39.5,CNc1cc(F)ccc1C(=O)OC
7,57 to 62,CC(C)C[C@H](NCc1ccc(C(C)(C)C)cc1)C(=O)N1CCN(C(c2ccc(F)cc2)c2ccc(F)cc2)CC1
8,102 to 105,O=C(O)CC(O)(CC(=O)O)C(F)(F)F
9,253 to 256,CC(=O)N1CCC(=O)NCc2cc([N+](=O)[O-])ccc21
10,171 to 172,COc1ccc(C(=O)Oc2ccc(C(=O)OCc3ccccc3)c(O)c2)cc1C12CC3CC(CC(C3)C1)C2
11,109 to 112,O=C/C=C/c1c(Cl)cc(Cl)cc1OCc1ccccc1
12,186,CCC#CCOc1ccc(/C=C/C(=O)Nc2ccccc2C(=O)O)cc1OC
13,58.5 to 59.5,CCOC(=O)c1c(OC)cc(C(F)(F)F)nc1C(F)(F)F
14,246 to 247,O=C1c2cc(-c3ccccc3)ccc2-c2c1c1ccc([N+](=O)[O-])cc1c(=O)n2CCCNS(=O)(=O)c1ccccc1
15,58 to 60,CCCCCCCCN(C=O)C1CC(C)(C)N(C=CC(=O)OCC)C(C)(C)C1
16,128,Nc1ccc(Oc2c(Cl)cc(C(F)(F)F)c(Cl)c2Cl)cc1Cl
17,110 to 114,CCC(=O)C1=C(O)CC(c2ccc(Oc3cccc(S(C)(=O)=O)c3)cc2)CC1=O (centres undefined)
18,89,N#CC(c1ccccc1)c1ccccn1 (racemic)
19,56 to 58,CCCCCCCCCCCCCCOc1ccc(CN(C(C)=O)c2cccc(CBr)c2)cc1
20,73 to 74,Cc1cc([N+](=O)[O-])cnc1CCC#N
21,161,Cc1cc(OC[C@@H]2CCC(=O)N2)cc(C)c1-c1cccc2c1OC[C@H]2Nc1ccc2c(c1)OC[C@H]2CC(=O)O
22,243 to 244,COc1ccc(-c2cnn3c(N)c(-c4ccc(F)cc4)c(C)nc23)cc1
23,95 to 96,COc1ccc(COc2coc(COC3CCCCO3)cc2=O)cc1 (centres undefined)
24,143 to 150,COc1ccc(-n2nc3c4c([nH]cc-3c2=O)CCCCCCCC4)cc1

row,melting point [°C],Structure (SMILES)
1,161 to 163,O=C1Nc2ccccc2N(C(=O)N2CCCC(CCCN3CCOCC3)C2)c2ncccc21 (centres undefined)
2,132 to 133,CC1(C)Nc2ccc(Cl)cc2N(C2CC2)C1=O
3,142 to 143,Nc1ncc(C#Cc2ccc(Cl)cc2)c(OCCOCCO)n1
4,128 to 136,OCc1cc(Cl)c(Cl)cc1CO
5,34 to 37,CCOC(=O)CCCCCNc1ccccc1
6,193 to 196,CC1(C)Oc2ccc(C#N)cc2C(Oc2cccnc2)C1(C)O (centres undefined)
7,231 to 232,CC[C@@H]1CN(c2c(F)c(N)c3c(=O)c(C(=O)O)cn(C4CC4)c3c2F)C[C@H]1NC(=O)OC (relative stereo)
8,94 to 96,COc1ccc(C(O)Cc2ccccn2)cc1OC1CCCC1 (centres undefined)
9,175 to 176,CCOC(=O)C1=C(N)NC(N)=C(C(=O)OCC)C1c1cccc([N+](=O)[O-])c1
10,213 to 220,CCC(=O)Oc1ccc(N)cc1C(=O)O
11,110,CCN1CCC(c2cccc(C(F)(F)F)c2)(C(C)(C)O)CC1
12,225 to 228,CCCCC(CCC)c1ccc2[nH]c3cnc(C(=O)OCC)c(C)c3c2c1 (centres undefined)
13,33,O=C1CCCCCCCCCCC(=O)OCCC1
14,119 to 121,CC(C)c1nc(C(C)C)c(CSc2ccc(F)cc2)c(-c2ccc(F)cc2)c1CO
15,123 to 125,Cc1onc(-c2ccccc2)c1C(=O)NCCCN1CCN(c2cc(F)ccc2OCC(F)(F)F)CC1
16,158 to 159,CN(C)c1ccc(C2(Oc3ccccc3)OC(=O)c3ccc(N(C)C)cc32)cc1 (centres undefined)
17,70 to 72,OC(CNCC1CCCO1)c1ccccc1 (centres undefined)
18,228,Cn1ncnc1COc1nn2c(-c3ccccc3)nnc2cc1C1CCC1
19,> 310,O=C(O)c1cc(=O)c2cc3c(=O)cc(C(=O)O)[nH]c3c(Cl)c2[nH]1
20,164,N#CCC(=O)c1ccc(Br)cc1
21,160,Nc1cc(=O)n(Cc2cccc(Br)c2)[nH]1
22,231 to 232,COC(=O)C1=C(C)NC(C)=C(C(=O)OC)C1c1cccc(NC(=O)C(F)(F)F)c1
23,173 to 174,O=C(O)COc1cc2cc(C3CCCC3)sc2c(Cl)c1Cl
24,77 to 78,Clc1ccc(OCc2ccccc2)nn1

row,Structure (SMILES),melting point [°C]
1,COc1cc2c(cc1OC)CC(NCC(=O)O)C2,250
2,COc1ccc2c3c1OC1C(=O)C=CC4C(C2)N(C)CCC314 (centres undefined),177 to 180
3,CCCN(CCC)C1CCc2c(ccc3[nH]cc(C(C)=O)c23)C1 (centres undefined),196 to 197
4,CC(C)(C)CC(NC(=O)c1ccc(Cl)cc1)NC(=N[N+](=O)[O-])Nc1cccnc1 (centres undefined),184 to 185
5,NNC(=O)C1(Cl)CC1(Cl)Cl (centres undefined),122 to 123
6,O=C(O)CNC1=Nc2ccccc2C(c2ccccc2)=NC1NC(=O)Nc1ccc(Cl)cc1 (centres undefined),186
7,Cc1cc(Br)cc(C)c1N[N+](=O)[O-],129 to 131
8,C=CCCCN(CCCC=C)Cc1noc(-c2ncn3c2CN(C)C(=O)c2ccccc2-3)n1,167 to 169
